Data taken from the NIST ThermoML archive (doi:10.1021/acs.jced.6b00158).
Numbers after ± are expanded uncertainties.

How the values were obtained:
[1] = 100 kPa, Liquid; for viscosity: Falling or rolling sphere viscometry; for mass density: Vibrating tube method
[2] = xn = mol fraction of the nth substance listed; settings: 100 kPa, Liquid, x1 = 1; for viscosity: Falling or rolling sphere viscometry; for mass density: Vibrating tube method

viscosity ([1]; 293.15 K) | mass density ([1]; 293.15 K) | viscosity ([1]; 298.15 K) | mass density ([1]; 298.15 K) | viscosity ([1]; 303.15 K) | mass density ([1]; 303.15 K) | viscosity ([1]; 308.15 K) | mass density ([1]; 308.15 K) | viscosity ([1]; 313.15 K) | mass density ([1]; 313.15 K) | viscosity ([2]; 293.15 K) | mass density ([2]; 293.15 K) | viscosity ([2]; 298.15 K) | mass density ([2]; 298.15 K) | viscosity ([2]; 303.15 K) | mass density ([2]; 303.15 K) | viscosity ([2]; 308.15 K) | mass density ([2]; 308.15 K) | viscosity ([2]; 313.15 K) | mass density ([2]; 313.15 K) | SMILES
4.023 ± 0.069 mPa·s | 801.96 ± 2 kg/m3 | 3.404 ± 0.067 mPa·s | 798.12 ± 2 kg/m3 | 2.882 ± 0.065 mPa·s | 794.22 ± 2 kg/m3 | 2.475 ± 0.064 mPa·s | 790.27 ± 2 kg/m3 | 2.097 ± 0.063 mPa·s | 786.27 ± 2 kg/m3 | – | – | – | – | – | – | – | – | – | – | CC(C)CO [2-methyl-1-propanol]
2.134 ± 0.063 mPa·s | 866.85 ± 2 kg/m3 | 1.944 ± 0.062 mPa·s | 862.31 ± 2 kg/m3 | 1.786 ± 0.062 mPa·s | 857.79 ± 2 kg/m3 | 1.572 ± 0.062 mPa·s | 853.24 ± 2 kg/m3 | 1.417 ± 0.061 mPa·s | 848.71 ± 2 kg/m3 | – | – | – | – | – | – | – | – | – | – | NC1CCCCC1 [cyclohexylamine]
– | – | – | – | – | – | – | – | – | – | 4.023 ± 0.069 mPa·s | 801.96 ± 2 kg/m3 | 3.404 ± 0.067 mPa·s | 798.12 ± 2 kg/m3 | 2.882 ± 0.065 mPa·s | 794.22 ± 2 kg/m3 | 2.475 ± 0.064 mPa·s | 790.27 ± 2 kg/m3 | 2.097 ± 0.063 mPa·s | 786.27 ± 2 kg/m3 | CC(C)CO [2-methyl-1-propanol] + NC1CCCCC1
